How the values were obtained:
[1] = Toxicity studies through repeat daily dosing; type: in vivo
Protocol: FIG. 4 gives the In vivo toxicity test. Male and female BALB/c mice (n=10) received indicated doses of compound 5 by daily gavage. Control mice received vehicle (olive oil). Body weights were determined 4 days before the start of the treatment and then throughout the period of treatment until day 25. Data points represent mean body weight.
The purpose of this study was to assess the efficacy of prolonged oral compound 5 treatment and ascertaining adverse impact, if any. […] The female mice were, on an average, 4 g lighter than male mice which is consistent with the common sex-specific weight difference.

[2] = system: apoptosis of gastric mucosa; assay: TUNEL assay of gastric tissue sections; type: in vivo; details: indomethacin ulcerated mice
Excerpt: To understand the fine information about the physical condition (the level of damage and/or intactness) of cells tissues under observation, different tissue samples were fixed in 10% formalin and embedded in paraffin. Tissue sections were deparaffinized with xylene and rehydrated with descending alcohol series. The sections were cut using microtome, and stained with hematoxylin and eosin, or subjected to Terminal deoxynucleotidyl transferase-mediated dUTP Nick End Labeling (TUNEL) assay by using a in situ apoptosis detection kit. Fixation, permeabilization, and staining were carried out in exact parallel to ensure comparative significance among normal, ulcerated and compound 5 treated groups. […] Images at 10× and 40× magnification were captured using Camedia software (E-20P 5.0 Megapixel) and processed under Adobe Photoshop version 7.0 (FIG. 1B).
Tissue sections were stained with hematoxylin and eosin stain. Fixation, permeabilization, and staining were carried out in parallel in normal, ulcerated and compound 5 treated groups to ensure comparative significance among different treatment. TUNEL assay is used for detection and quantification of apoptosis in gastric tissues, based on labelling of DNA strand breaks. Terminal deoxynucleotidyl transferase-mediated dUTP Nick End Labeling (TUNEL) assay was performed by using an in situ apoptosis detection kit. […]

[3] = molecular target: T1, MMP-2 (Mus musculus, UniProt P33434); assay: Gelatin zymography of gastric tissue extract, MMP-2; type: in vivo, mice; details: pretreatment before indomethacin
T1 construct: Tissue extracts were electrophoresed in SDS-PAGE containing gelatin under nonreducing conditions; from tissue; host or cells: mouse stomach (gastric tissue) PBS / Triton X-100 extracts
Protocol: The whole stomach (including fundic, body and pyloric parts) was washed with saline and used for extraction. Stomach except connective tissue layer (named as gastric tissue) were suspended in 10 mM phosphate buffer saline (PBS) containing protease inhibitors, minced and incubated for 10 min at 4° C. After centrifugation at 12,000 g for 15 min, the supernatant was collected as PBS extracts. The pellet was then extracted in lysis buffer (10 mM Tris-HCl pH 8.0, 150 mM NaCl, 1% Triton X-100 and protease inhibitors) and centrifuged at 12,000 g for 15 min to obtain TX extracts. Both PBS and TX extracts were preserved at −70° C. and used in future studies. Proteins were estimated either by Lowry method or by Bradford assay.
For the analysis of MMP-9 activity, tissue extracts were electrophoresed in 8% SDS-PAGE containing 1 mg/mL gelatin under nonreducing conditions. Equal amounts of tissue extracts (70 μg of total protein) were loaded in all the lanes. […] Quantification of zymographic bands was performed using densitometry linked to proper software (Lab Image, Kapelan Gmbh, Leipzig, Germany). […]
Tissue extracts were electrophoresed in SDS-PAGE containing gelatin under nonreducing conditions. […] Gelatinolytic activity came as negative staining and was quantified by Lab Image software.

[4] = system: Myeloperoxidase (MPO); assay: Myeloperoxidase assay in gastric tissue; type: in vivo; details: ulcerated mice, gastric tissue homogenate
Protocol: To understand the anti-inflammatory activity of compound 5, the inventors performed Myeloperoxidase (MPO) Assay in mouse of control, diseased and treated. Myeloperoxidase (MPO) activity in the mice gastric tissues was measured by calorimetric assay using guaiacol as the substrate. Briefly, gastric tissue homogenate prepared in 5 mM phosphate buffer was added to 1 mL of reaction buffer containing 0.5 mM H2O2 and 0.4 M guaiacol in 50 mM phosphate buffer, pH 7.4. The changes in the optical density per minute for tetraguaiacol were measured at 470 nm in a Shimadzu spectrophotometer. The results were expressed in units/gram gastric tissue (ε=26.6/mM/cm).
Myeloperoxidase (MPO) activity in the mouse gastric tissue homogenate was assayed colorimetrically using guaiacol and H2O2.

[5] = system: lipid peroxide content (TBARS); assay: Measurement of lipid peroxidation (TBARS) in gastric tissue homogenate; type: in vivo; details: ulcerated mice
Protocol: The fundic stomach homogenate was used for measurement of lipid peroxide content as thiobarbituric acid reactive species (TBARS).
The cytosolic fraction from the gastric tissue homogenate was used for measurement of lipid peroxide content as thiobarbituric acid reactive species (TBARS). Briefly, 1 mL of the cytosolic fraction was allowed to react with 2 mL of TCA-TBA-HCl (15% TCA, 0.375% TBA, 0.25 N HCl) reagent, heated in a boiling water-bath for 15 min, cooled and centrifuged. The absorbance of the supernatant was measured for nano moles of TBARS at 535 nm (ε=1.5×10^5/M/cm).

[6] = 150 or 300 mg/kg body weight/day for 25 days, daily gavage

T1 sequence (P33434 110-662): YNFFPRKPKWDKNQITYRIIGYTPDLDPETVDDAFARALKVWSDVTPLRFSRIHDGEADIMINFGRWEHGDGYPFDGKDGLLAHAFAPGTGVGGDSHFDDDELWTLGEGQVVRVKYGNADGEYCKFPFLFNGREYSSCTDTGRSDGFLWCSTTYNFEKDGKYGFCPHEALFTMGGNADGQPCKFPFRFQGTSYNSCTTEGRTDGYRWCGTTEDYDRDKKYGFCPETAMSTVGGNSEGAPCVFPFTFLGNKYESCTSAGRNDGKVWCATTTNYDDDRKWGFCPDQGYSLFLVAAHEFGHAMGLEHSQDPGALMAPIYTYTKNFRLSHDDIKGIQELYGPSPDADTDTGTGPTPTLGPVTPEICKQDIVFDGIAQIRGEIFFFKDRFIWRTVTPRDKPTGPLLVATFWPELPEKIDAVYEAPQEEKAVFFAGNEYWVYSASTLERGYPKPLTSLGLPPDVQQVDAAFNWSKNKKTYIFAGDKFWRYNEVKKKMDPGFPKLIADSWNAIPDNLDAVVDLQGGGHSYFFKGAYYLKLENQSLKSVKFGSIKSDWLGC

COc1cccc2[nH]cc(-c3cc(-c4ccccc4)oc3-c3ccccc3)c12 [compound 5, 4-methoxy-3-(2,5-diphenylfuran-3-yl)-1H-indole]
body weight, treated versus control groups [1, 6]: no differences in body weight
clinical signs of toxicity (lethargy, abdominal distension, fur loss, hunching) [1, 6]: no clinical signs of toxicity
toxicity, general statement ([1]; mouse, in vivo): non-toxic
apoptosis of gastric mucosa (TUNEL) [2]: suppression of apoptosis
MMP-2 activity in gastric tissue extract [3]: remained unaltered
Myeloperoxidase [4]: 9.13±0.33 units/gram tissue
Myeloperoxidase ([4]; listed as Compound 5): 9.13 ± 0.33 units/gram tissue
Lipid peroxidation [5]: 0.47±0.15 nmol TBARS/mg tissue
Lipid peroxidation ([5]; listed as Compound 5): 0.47 ± 0.15 nmol TBARS/mg tissue
